From PubChem BioAssay (NCI)
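Briefly, cells in 96-well plates were exposed to five compound concentrations for 48 h, and endpoints were estimated by linear interpolation. TGI is the concentration that stops growth completely.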

Key:
Assay in all cases: growth of human tumour cells (NCI), 48 h
ACHN renal = system: ACHN renal
MDA-N = system: MDA-N
MCF7 breast = system: MCF7 breast
RPMI-8226 leukemia = system: RPMI-8226 leukemia
SF-295 CNS = system: SF-295 CNS
SW-620 colon = system: SW-620 colon
786-0 renal = system: 786-0 renal
SR leukemia = system: SR leukemia
EKVX NSCLC = system: EKVX NSCLC
MOLT-4 leukemia = system: MOLT-4 leukemia
NCI/ADR-RES ovarian = system: NCI/ADR-RES ovarian
UO-31 renal = system: UO-31 renal
SN12C renal = system: SN12C renal
OVCAR-5 ovarian = system: OVCAR-5 ovarian
TK-10 renal = system: TK-10 renal
SNB-75 CNS = system: SNB-75 CNS
U251 CNS = system: U251 CNS
OVCAR-8 ovarian = system: OVCAR-8 ovarian
T-47D breast = system: T-47D breast
HCT-116 colon = system: HCT-116 colon
NCI-H460 lung = system: NCI-H460 lung
SK-MEL-2 melanoma = system: SK-MEL-2 melanoma
HT29 colon = system: HT29 colon
MDA-MB-231 breast = system: MDA-MB-231 breast
NCI-H23 lung = system: NCI-H23 lung
A498 renal = system: A498 renal
MALME-3M melanoma = system: MALME-3M melanoma
CCRF-CEM leukemia = system: CCRF-CEM leukemia
LOX IMVI melanoma = system: LOX IMVI melanoma
MDA-MB-435 = system: MDA-MB-435
UACC-257 melanoma = system: UACC-257 melanoma
DU-145 prostate = system: DU-145 prostate
IGROV1 ovarian = system: IGROV1 ovarian
HOP-62 NSCLC = system: HOP-62 NSCLC
SF-539 CNS = system: SF-539 CNS
PC-3 prostate = system: PC-3 prostate
SNB-19 CNS = system: SNB-19 CNS
HL-60(TB) leukemia = system: HL-60(TB) leukemia
SK-MEL-28 melanoma = system: SK-MEL-28 melanoma
SF-268 CNS = system: SF-268 CNS
SK-OV-3 ovarian = system: SK-OV-3 ovarian
UACC-62 melanoma = system: UACC-62 melanoma
COLO 205 colon = system: COLO 205 colon
HCC-2998 colon = system: HCC-2998 colon
OVCAR-4 ovarian = system: OVCAR-4 ovarian
OVCAR-3 ovarian = system: OVCAR-3 ovarian
HCT-15 colon = system: HCT-15 colon
M14 melanoma = system: M14 melanoma
K-562 leukemia = system: K-562 leukemia
NCI-H226 lung = system: NCI-H226 lung
RXF 393 renal = system: RXF 393 renal
NCI-H522 lung = system: NCI-H522 lung
KM12 colon = system: KM12 colon
HOP-92 NSCLC = system: HOP-92 NSCLC
BT-549 breast = system: BT-549 breast
SK-MEL-5 melanoma = system: SK-MEL-5 melanoma
CAKI-1 renal = system: CAKI-1 renal
A549 NSCLC = system: A549 NSCLC

## CCCCN(CCCC)CC(O)c1cc(-c2ccc(Cl)c(Cl)c2)nc2c(Cl)cc(Cl)cc12 (stereo not given)
ACHN renal
  TGI: > 100 µM
MDA-N
  TGI: > 100 µM
MCF7 breast
  TGI: > 100 µM
RPMI-8226 leukemia
  TGI: > 100 µM
SF-295 CNS
  TGI: > 100 µM
SW-620 colon
  TGI: 39.1 µM
786-0 renal
  TGI: > 100 µM
SR leukemia
  TGI: > 100 µM
EKVX NSCLC
  TGI: > 100 µM
MOLT-4 leukemia
  TGI: > 100 µM
NCI/ADR-RES ovarian
  TGI: > 100 µM
UO-31 renal
  TGI: > 100 µM
SN12C renal
  TGI: > 100 µM
OVCAR-5 ovarian
  TGI: > 100 µM
TK-10 renal
  TGI: > 100 µM
SNB-75 CNS
  TGI: > 100 µM
U251 CNS
  TGI: > 100 µM
OVCAR-8 ovarian
  TGI: > 100 µM
T-47D breast
  TGI: > 100 µM
HCT-116 colon
  TGI: > 100 µM
NCI-H460 lung
  TGI: > 100 µM
SK-MEL-2 melanoma
  TGI: > 100 µM
HT29 colon
  TGI: > 100 µM
MDA-MB-231 breast
  TGI: > 100 µM
NCI-H23 lung
  TGI: > 100 µM
A498 renal
  TGI: > 100 µM
MALME-3M melanoma
  TGI: > 100 µM
CCRF-CEM leukemia
  TGI: > 100 µM
LOX IMVI melanoma
  TGI: > 100 µM
MDA-MB-435
  TGI: > 100 µM
UACC-257 melanoma
  TGI: > 100 µM
DU-145 prostate
  TGI: > 100 µM
IGROV1 ovarian
  TGI: > 100 µM
HOP-62 NSCLC
  TGI: > 100 µM
SF-539 CNS
  TGI: > 100 µM
PC-3 prostate
  TGI: > 100 µM
SNB-19 CNS
  TGI: > 100 µM
HL-60(TB) leukemia
  TGI: > 100 µM
SK-MEL-28 melanoma
  TGI: > 100 µM
SF-268 CNS
  TGI: > 100 µM
SK-OV-3 ovarian
  TGI: > 100 µM
UACC-62 melanoma
  TGI: > 100 µM
COLO 205 colon
  TGI: > 100 µM
HCC-2998 colon
  TGI: > 100 µM
OVCAR-4 ovarian
  TGI: > 100 µM
OVCAR-3 ovarian
  TGI: > 100 µM
HCT-15 colon
  TGI: > 100 µM

## COc1ccc(N[C@H]([C@@H](c2ccccc2)S(=O)c2ccc(C)cc2)C(F)(F)F)cc1 (stereo not given in full)
ACHN renal
  TGI: > 100 µM
MDA-N
  TGI: > 100 µM
MCF7 breast
  TGI: > 100 µM
SF-295 CNS
  TGI: > 100 µM
SW-620 colon
  TGI: > 100 µM
786-0 renal
  TGI: > 100 µM
SR leukemia
  TGI: > 100 µM
EKVX NSCLC
  TGI: > 100 µM
MOLT-4 leukemia
  TGI: > 100 µM
NCI/ADR-RES ovarian
  TGI: > 100 µM
UO-31 renal
  TGI: > 100 µM
M14 melanoma
  TGI: > 100 µM
K-562 leukemia
  TGI: > 100 µM
NCI-H226 lung
  TGI: > 100 µM
SN12C renal
  TGI: > 100 µM
OVCAR-5 ovarian
  TGI: > 100 µM
RXF 393 renal
  TGI: > 100 µM
TK-10 renal
  TGI: > 100 µM
SNB-75 CNS
  TGI: > 100 µM
U251 CNS
  TGI: 50.2 µM
OVCAR-8 ovarian
  TGI: > 100 µM
T-47D breast
  TGI: > 100 µM
HCT-116 colon
  TGI: > 100 µM
NCI-H460 lung
  TGI: > 100 µM
SK-MEL-2 melanoma
  TGI: > 100 µM
HT29 colon
  TGI: > 100 µM
MDA-MB-231 breast
  TGI: > 100 µM
NCI-H522 lung
  TGI: > 100 µM
NCI-H23 lung
  TGI: > 100 µM
MALME-3M melanoma
  TGI: > 100 µM
KM12 colon
  TGI: > 100 µM
CCRF-CEM leukemia
  TGI: 66.6 µM
LOX IMVI melanoma
  TGI: > 100 µM
HOP-92 NSCLC
  TGI: > 100 µM
MDA-MB-435
  TGI: > 100 µM
UACC-257 melanoma
  TGI: > 100 µM
DU-145 prostate
  TGI: > 100 µM
IGROV1 ovarian
  TGI: > 100 µM
SF-539 CNS
  TGI: 63.2 µM
BT-549 breast
  TGI: > 100 µM
PC-3 prostate
  TGI: > 100 µM
SNB-19 CNS
  TGI: > 100 µM
HL-60(TB) leukemia
  TGI: 73.7 µM
SK-MEL-28 melanoma
  TGI: > 100 µM
SK-MEL-5 melanoma
  TGI: > 100 µM
SK-OV-3 ovarian
  TGI: > 100 µM
UACC-62 melanoma
  TGI: > 100 µM
COLO 205 colon
  TGI: > 100 µM
HCC-2998 colon
  TGI: > 100 µM
OVCAR-4 ovarian
  TGI: 79.5 µM
OVCAR-3 ovarian
  TGI: > 100 µM
CAKI-1 renal
  TGI: > 100 µM
HCT-15 colon
  TGI: > 100 µM
A549 NSCLC
  TGI: > 100 µM

## C#CCCCC(=C)C[C@@H]1OC(=O)[C@H](C)[C@@H]1O
ACHN renal
  TGI: > 100 µM
MDA-N
  TGI: > 100 µM
MCF7 breast
  TGI: > 100 µM
RPMI-8226 leukemia
  TGI: > 100 µM
SF-295 CNS
  TGI: > 100 µM
SW-620 colon
  TGI: > 100 µM
786-0 renal
  TGI: > 100 µM
EKVX NSCLC
  TGI: > 100 µM
MOLT-4 leukemia
  TGI: > 100 µM
NCI/ADR-RES ovarian
  TGI: > 100 µM
UO-31 renal
  TGI: > 100 µM
M14 melanoma
  TGI: > 100 µM
K-562 leukemia
  TGI: > 100 µM
SN12C renal
  TGI: > 100 µM
OVCAR-5 ovarian
  TGI: > 100 µM
RXF 393 renal
  TGI: > 100 µM
SNB-75 CNS
  TGI: > 100 µM
U251 CNS
  TGI: > 100 µM
T-47D breast
  TGI: > 100 µM
HCT-116 colon
  TGI: > 100 µM
NCI-H460 lung
  TGI: > 100 µM
SK-MEL-2 melanoma
  TGI: > 100 µM
NCI-H23 lung
  TGI: > 100 µM
A498 renal
  TGI: > 100 µM
KM12 colon
  TGI: > 100 µM
CCRF-CEM leukemia
  TGI: > 100 µM
LOX IMVI melanoma
  TGI: > 100 µM
HOP-92 NSCLC
  TGI: > 100 µM
MDA-MB-435
  TGI: > 100 µM
DU-145 prostate
  TGI: > 100 µM
HOP-62 NSCLC
  TGI: > 100 µM
PC-3 prostate
  TGI: > 100 µM
SNB-19 CNS
  TGI: > 100 µM
HL-60(TB) leukemia
  TGI: > 100 µM
SK-MEL-28 melanoma
  TGI: > 100 µM
SK-MEL-5 melanoma
  TGI: > 100 µM
SK-OV-3 ovarian
  TGI: > 100 µM
COLO 205 colon
  TGI: > 100 µM
HCC-2998 colon
  TGI: > 100 µM
OVCAR-4 ovarian
  TGI: > 100 µM
OVCAR-3 ovarian
  TGI: > 100 µM
CAKI-1 renal
  TGI: > 100 µM
HCT-15 colon
  TGI: > 100 µM
A549 NSCLC
  TGI: > 100 µM
